Laboratory results taken from EP4559908A1, “HETEROARYL DERIVATIVE COMPOUND AND USE THEREOF” (S2CBio Inc., priority 2022, dated 2024).

Target: T1, human ANO6 (variant 5) (Homo sapiens, UniProt Q4KMQ2)
T1 construct: expressed in transfected cells; host or cells: Fischer rat thyroid (FRT) cells
T1 sequence (Q4KMQ2 1-931 isoform Q4KMQ2-2): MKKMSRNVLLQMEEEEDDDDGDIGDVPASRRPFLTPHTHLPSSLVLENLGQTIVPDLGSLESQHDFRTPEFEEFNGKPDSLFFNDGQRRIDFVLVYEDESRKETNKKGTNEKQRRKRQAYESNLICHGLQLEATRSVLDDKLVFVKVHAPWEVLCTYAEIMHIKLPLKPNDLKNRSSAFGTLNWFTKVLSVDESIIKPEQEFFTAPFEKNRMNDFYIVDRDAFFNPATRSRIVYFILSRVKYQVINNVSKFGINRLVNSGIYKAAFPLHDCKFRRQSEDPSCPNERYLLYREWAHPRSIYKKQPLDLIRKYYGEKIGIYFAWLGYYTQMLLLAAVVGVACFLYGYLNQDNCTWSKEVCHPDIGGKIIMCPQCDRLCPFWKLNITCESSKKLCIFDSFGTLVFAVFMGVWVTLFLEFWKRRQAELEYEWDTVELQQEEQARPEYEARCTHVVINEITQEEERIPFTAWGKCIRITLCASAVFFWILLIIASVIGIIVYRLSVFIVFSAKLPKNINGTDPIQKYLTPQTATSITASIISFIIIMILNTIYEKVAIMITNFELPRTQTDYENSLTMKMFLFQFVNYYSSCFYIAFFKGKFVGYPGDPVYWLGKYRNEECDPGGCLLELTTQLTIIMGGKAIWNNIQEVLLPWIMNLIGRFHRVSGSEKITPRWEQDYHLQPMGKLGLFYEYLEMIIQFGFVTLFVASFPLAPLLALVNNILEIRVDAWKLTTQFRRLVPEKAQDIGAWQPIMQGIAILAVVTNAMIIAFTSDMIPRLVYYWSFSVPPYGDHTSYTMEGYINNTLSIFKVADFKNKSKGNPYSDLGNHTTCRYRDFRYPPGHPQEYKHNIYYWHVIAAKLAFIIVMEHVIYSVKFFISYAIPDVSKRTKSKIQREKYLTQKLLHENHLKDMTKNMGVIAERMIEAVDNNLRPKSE
Assay: Lact C2 assay (measuring phosphatidylserine externalization scramblase function)
Type: cell-based
Settings: FRT cells expressing human ANO6 (variant 5), ionomycin 10 µM, Lact-C2-GFP fluorescence, average of three tests; for inhibition at 0.05 µM / inhibition at 0.1 µM / inhibition at 1 µM: FRT; for inhibition at 0.05 µM: read-out: % Inhibition 50 nM; for inhibition at 0.1 µM: compound 100 nM; for inhibition at 1 µM: compound 1 µM, read-out: % Inhibition 1 µM
Method in brief: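 Cells were pretreated 10 min with compound (50 nM, 100 nM, 1 µM; 1% DMSO), then given 10 µM ionomycin for 10 min. Surface phosphatidylserine was stained with 500 nM Lact-C2-GFP (10 min, 37 °C), fixed and imaged. Inhibition was scaled between untreated (100%) and ionomycin-alone (0%) wells.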

Row | inhibition at 0.05 µM (compound 50 nM) [%] | inhibition at 0.1 µM [%] | inhibition at 1 µM [%] | % Inhibition 50 nM (compound 50 nM) | Compound
1 | > 60 | > 60 | > 60 |  | c1cc(Nc2ccc(-c3cccnn3)cc2)cc(-c2nc3ccccc3[nH]2)c1 [Example 21, 3-(1H-benzo[d]imidazol-2-yl)-N-(4-(pyridazin-3-yl)phenyl)aniline]
2 | > 60 |  | > 60 |  | Cc1ccc2nc(-c3cccc(Nc4ccc(-c5cccnn5)cc4)c3)[nH]c2c1 [Example 105, 3-(6-methyl-1H-benzo[d]imidazol-2-yl)-N-(4-pyridazin-3-ylphenyl)aniline]
3 | > 60 | > 60 | > 60 |  | FC(F)(F)c1ccc2nc(-c3cccc(Nc4ccc(-c5cccnn5)cc4)c3)[nH]c2c1 [Example 23, N-(4-(pyridazin-3-yl)phenyl)-3-(6-(trifluoromethyl)-1H-benzo[d]imidazol-2-yl)aniline]
4 |  |  | > 60 |  | COC(=O)c1ccc2nc(-c3cccc(Nc4ccc(-c5ncccn5)cc4)c3)[nH]c2c1 [Example 78, methyl 2-(3-((4-(pyrimidin-2-yl)phenyl)amino)phenyl)-1H-benzo[d]imidazol-6-carboxylate]
5 | 30 to 60 |  | > 60 |  | CN(C)c1ccc2nc(-c3cccc(Nc4ccc(-c5cccnn5)cc4)c3)[nH]c2c1 [Example 217, N,N-dimethyl-2-(3-((4-(pyridazin-3-yl)phenyl)amino)phenyl)-1H-benzo[d]imidazol-6-amine]
6 |  |  | 30 to 60 |  | Fc1ccc2nc(-c3cccc(Nc4ncc(-c5ncccn5)cn4)c3)[nH]c2c1 [Example 247, N-(3-(6-fluoro-1H-benzo[d]imidazol-2-yl)phenyl)-[2,5'-bipyrimidin]-2'-amine]
7 |  |  | > 60 |  | COc1ccc(-c2ccc(Nc3cccc(-c4nc5ccccc5[nH]4)c3)cc2)nn1 [Example 275, 3-(1H-benzo[d]imidazol-2-yl)-N-(4-(6-methoxypyridazin-3-yl)phenyl)aniline]
8 |  |  | > 60 |  | c1cc(Nc2ccc(-c3cccnn3)cc2)cc(-c2nc3ncccc3[nH]2)c1 [Example 219, 3-(1H-imidazo[4,5-b]pyridin-2-yl)-N-(4-(pyridazin-3-yl)phenyl)aniline]
9 | > 60 |  | > 60 |  | FC(F)(F)c1ccc2nc(-c3cccc(Nc4ccc(-c5ccccn5)cc4)c3)[nH]c2c1 [Example 98, N-[4-(2-pyridyl)phenyl]-3-[6-(trifluoromethyl)-1H-benzo[d]imidazol-2-yl]aniline]
10 | > 60 | > 60 |  |  | Fc1ccc2nc(-c3cccc(Nc4ccc(-c5ccccn5)cn4)c3)[nH]c2c1 [Example 58, N-(3-(6-fluoro-1H-benzo[d]imidazol-2-yl)phenyl)-[2,3'-bipyridine]-6'-amine]
11 | > 60 |  | > 60 |  | O=[N+]([O-])c1ccc2nc(-c3cccc(Nc4ccc(-c5cccnn5)cc4)c3)[nH]c2c1 [Example 227, 3-(6-nitro-1H-benzo[d]imidazol-2-yl)-N-(4-(pyridazin-3-yl)phenyl)aniline]

Second part, the molecule before the results:

Row | Compound | inhibition at 0.05 µM (compound 50 nM) [%] | inhibition at 0.1 µM [%] | inhibition at 1 µM [%] | % Inhibition 50 nM (compound 50 nM)
12 | FC(F)(F)c1cc2[nH]c(-c3cccc(Nc4ccc(-c5ccncn5)cn4)c3)nc2cn1 [Example 89, 5-pyrimidin-4-yl-N-[3-[6-(trifluoromethyl)-1H-imidazo[4,5-c]pyridin-2-yl]phenyl]pyridin-2-amine] | 30 to 60 |  | > 60 | 
13 | FC(F)(F)c1ccc2[nH]c(-c3cccc(Nc4ccc(-c5cccnn5)cc4)c3)nc2n1 [Example 235, N-(4-(pyridazin-3-yl)phenyl)-3-(5-(trifluoromethyl)-1H-imidazo[4,5-b]pyridin-2-yl)aniline] | 30 to 60 |  | > 60 | 
14 | c1cc(Nc2ccc(-c3ccncn3)nn2)cc(-c2nc3ccccc3[nH]2)c1 [Example 257, N-(3-(1H-benzo[d]imidazol-2-yl)phenyl)-6-(pyrimidin-4-yl)pyridazin-3-amine] |  |  | 30 to 60 | 
15 | Fc1cc2nc(-c3cccc(Nc4ccc(-c5ccncn5)cc4)c3)[nH]c2cc1F [Example 95, 3-(5,6-difluoro-1H-benzo[d]imidazol-2-yl)-N-(4-pyrimidin-4-ylphenyl)aniline] | > 60 |  | > 60 | 
16 | COc1ccc2nc(-c3cccc(Nc4cnc(-c5ccccn5)cn4)c3)[nH]c2c1 [Example 299, N-(3-(6-methoxy-1H-benzo[d]imidazol-2-yl)phenyl)-5-(pyridin-2-yl)pyrazin-2-amine] |  |  | > 60 | 
17 | FC(F)(F)c1ccc2nc(-c3cccc(Nc4ccc(-c5ccncn5)cn4)c3)[nH]c2c1 [Example 88, 5-pyrimidin-4-yl-N-[3-[6-(trifluoromethyl)-1H-benzo[d]imidazol-2-yl]phenyl]pyridin-2-amine] | > 60 |  | > 60 | 
18 | CN1CCN(c2ccc(-c3nc4ccc(C(F)(F)F)cc4[nH]3)cc2Nc2ncc(-c3cccnn3)cn2)CC1 [Example 176, N-(2-(4-methylpiperazin-1-yl)-5-(6-(trifluoromethyl)-lH-benzo[d]imidazol-2-yl)phenyl)-5-(pyridazin-3-yl)pyrimidin-2-amine] |  |  | 30 to 60 | 
19 | FC(F)(F)c1ccc2nc(-c3cccc(Nc4ncc(-c5ncccn5)cn4)c3)[nH]c2c1 [Example 63, N-{3-[6-(trifluoromethyl)-1H-benzo[d]imidazol-2-yl]phenyl}-[2,5'-bipyrimidin]-2'-amine] | > 60 | > 60 |  | 
20 | FC(F)(F)c1ccc2nc(-c3cccc(Nc4cnc(-c5ccccn5)cn4)c3)[nH]c2c1 [Example 302, 5-(pyridin-2-yl)-N-(3-(6-(trifluoromethyl)-1H-benzo[d]imidazol-2-yl)phenyl)pyrazin-2-amine] | > 60 |  | > 60 | 
21 | c1ccc(CNc2ccc3nc(-c4cccc(Nc5ccc(-c6cccnn6)cc5)c4)[nH]c3c2)cc1 [Example 229, N-benzyl-2-(3-((4-(pyridazin-3-yl)phenyl)amino)phenyl)-1H-benzo[d]imidazol-6-amine] |  |  | > 60 | 
22 | Nc1cc(Nc2cccc(-c3nc4ccccc4[nH]3)c2)ccc1-c1cccnn1 [Example 207, N^1-(3-(1H-benzo[d]imidazol-2-yl)phenyl)-4-(pyridazin-3-yl)benzene-1,3-diamine] |  |  | > 60 | 
23 | Fc1cccc(-c2ccc(Nc3cccc(-c4nc5ccc(C(F)(F)F)cc5[nH]4)c3)nc2)c1 [Example 18, 5-(3-fluorophenyl)-N-(3-(6-(trifluoromethyl)-1H-benzo[d]imidazol-2-yl)phenyl)pyridin-2-amine] | > 60 | > 60 | > 60 | 
24 | FC(F)(F)c1cc2nc(-c3cccc(Nc4ccc(-c5ccccc5)nn4)c3)[nH]c2cc1Cl [Example 8, N-{3-[6-chloro-5-(trifluoromethyl)-1H-benzo[d]imidazol-2-yl]phenyl}-6-phenylpyridazin-3-amine] | > 60 | > 60 | > 60 | 
25 | Fc1ccc2nc(-c3cccc(Nc4ncc(-c5cccnn5)cn4)c3)[nH]c2c1 [Example 51, N-(3-(6-fluoro-1H-benzo[d]imidazol-2-yl)phenyl)-5-(pyridazin-3-yl)pyrimidin-2-amine] |  | > 60 |  | B (30 to 60% inhibition)
26 | c1ccc(-c2ccc(Nc3cccc(-c4nc5ccccc5[nH]4)c3)cc2)cc1 [Example 19, N-[3-(1H-benzo[d]imidazol-2-yl)phenyl]-[1,1'-biphenyl]-4-amine] | 30 to 60 | > 60 | > 60 | 
27 | c1ccc(-c2ccc(Nc3cccc(-c4nc5ccccc5[nH]4)c3)nc2)nc1 [Example 59, N-[3-(1H-benzo[d]imidazol-2-yl)phenyl]-[2,3'-bipyridin]-6'-amine] | > 60 | > 60 |  | 
28 | CC(C)(C)c1ccc2nc(-c3cccc(Nc4ccc(-c5ccccc5)nn4)c3)[nH]c2c1 [Example 3, N-[3-(6-tert-butyl-1H-benzo[d]imidazol-2-yl)phenyl]-6-phenylpyridazin-3-amine] | > 60 | > 60 | > 60 | 
